Data from US12302902B2, “Antimicrobial compositions, including antimicrobial hydrogels, effective against mature biofilms” (Cormedix Inc., priority 2017, dated 2025).

How the values were obtained:
[1] = test system: Microbes; settings: cited from earlier work
[2] = test system: P. aeruginosa; settings: cited from earlier work
[3] = test system: Pseudomonas aeruginosa (PAO1) biofilm; assay: Ex vivo biofilm porcine skin explant model, bacterial load after treatment with hydrogel; assay type: cell-based; settings: 3 day cultured PA01 explants, treated with 1 ml solution, cell count Day 4

Compound: O=S1(=O)CCN(CN2CCS(=O)(=O)NC2)CN1 [Taurolidine, bis(1,1-dioxoperhydro-1,2,4-thiadiazinyl-4)-methane]
- destruction time in vitro [1]: 30 min

Compound: NC[C@H]1O[C@H](O[C@H]2[C@H](O)[C@@H](O[C@H]3O[C@H](CO)[C@@H](O)[C@H](N)[C@H]3O)[C@H](N)C[C@@H]2N)[C@H](N)C[C@@H]1O [tobramycin]
- reduction of biofilm cell counts ([2]; P. aeruginosa biofilm, tobramycin levels far in excess of the MIC): approximately 2 logs
- decrease in planktonic cells ([2]; P. aeruginosa planktonic cells, same dosage): > 8 log

Compound: gentamicin
- PA01 AVG (average CFU/ml of sonicated explant bacterial suspension) [3]: 3.45E+07 CFU/ml
